According to patent US10392428B2, “GLP-1 derivatives and uses thereof” (Novo Nordisk A/S, priority 2014, dated 2019):
Where two headings read alike, the source gives them in different places. Non-standard residues stand in square brackets, D forms with d. Residues, ends and D or L forms follow the SMILES beside them. Groups on a side chain read outwards from the residue. *: point of attachment. X1 = O=C(O)CCCCCCCCCCCCCCCCCCC(=O)NC[C@H]1CC[C@H](C(=O)N[C@@H](CCC(=O)NCCOCCOCC(=O)NCCOCCOCC(=O)NCCCC[C@H](NC(=O)COCCOCCNC(=O)COCCOCCNC(=O)CC[C@H](NC(=O)[C@H]2CC[C@H](CNC(=O)CCCCCCCCCCCCCCCCCCC(=O)O)CC2)C(=O)O)C(=O)*)C(=O)O)CC1; Desaminohistidyl = O=C(CCc1c[nH]cn1)*; AEEA = NCCOCCOCC(=O)O; Aib = CC(C)(N)C(=O)O

Experiment: Pharmacokinetic study in minipigs (i.v.)
Conditions: male, Göttingen, minipig, in vivo, iv
Description: The derivatives of Examples 12, 14, and 15 were dosed 2 nmol/kg. The derivatives of Examples 1 and 2 were dosed 15 nmol/kg.

[1] = minipigs, i.v., 5 nmol/kg, harmonic mean, read-out: Terminal half-live (converted)

| half-life | Structure (SMILES) | half-life [1] |
| --- | --- | --- |
| 3 h | CCCCCCCCCCCC(=O)NCCOCCOCC(=O)NCCCC[C@H](NC(=O)COCCOCCNC(=O)CCCCCCCCCCC)C(=O)NCCOCCOCC(=O)NCCCC[C@H](NC(=O)[C@H](CCCNC(=N)N)NC(=O)C(C)(C)NC(=O)[C@H](CCCCN)NC(=O)[C@@H](NC(=O)[C@H](CC(C)C)NC(=O)[C@H](Cc1c[nH]c2ccccc12)NC(=O)[C@H](C)NC(=O)[C@@H](NC(=O)[C@H](Cc1ccccc1)NC(=O)[C@H](CCC(=O)O)NC(=O)[C@H](CCCCN)NC(=O)[C@H](C)NC(=O)[C@H](C)NC(=O)[C@H](CCC(N)=O)NC(=O)C(C)(C)NC(=O)[C@H](CCC(=O)O)NC(=O)[C@H](CC(C)C)NC(=O)[C@H](Cc1ccc(O)cc1)NC(=O)[C@H](CO)NC(=O)[C@H](CO)NC(=O)[C@@H](NC(=O)[C@H](CC(=O)O)NC(=O)[C@H](CO)NC(=O)[C@@H](NC(=O)[C@H](Cc1ccccc1)NC(=O)[C@@H](NC(=O)CNC(=O)[C@H](CCC(=O)O)NC(=O)C(C)(C)NC(=O)[C@@H](N)Cc1c[nH]cn1)[C@@H](C)O)[C@@H](C)O)C(C)C)[C@@H](C)CC)C(C)C)C(N)=O [Comparative Example 1, N{Epsilon-37}-[2-[2-[2-[[(2S)-2,6-bis[[2-[2-[2-(dodecanoylamino)ethoxy]ethoxy]acetyl]amino]hexanoyl]amino]ethoxy]ethoxy]acetyl]-[Aib8,Aib22,Aib35,Lys37]-GLP-1-(7-37)-peptide Amide, reference compound] | – |
| 3 h | CCCCCCCCCCCCCC(=O)NCCOCCOCC(=O)NCCCC[C@H](NC(=O)COCCOCCNC(=O)CCCCCCCCCCCCC)C(=O)NCCOCCOCC(=O)NCCCC[C@H](NC(=O)[C@H](CCCNC(=N)N)NC(=O)C(C)(C)NC(=O)[C@H](CCCCN)NC(=O)[C@@H](NC(=O)[C@H](CC(C)C)NC(=O)[C@H](Cc1c[nH]c2ccccc12)NC(=O)[C@H](C)NC(=O)[C@@H](NC(=O)[C@H](Cc1ccccc1)NC(=O)[C@H](CCC(=O)O)NC(=O)[C@H](CCCCN)NC(=O)[C@H](C)NC(=O)[C@H](C)NC(=O)[C@H](CCC(N)=O)NC(=O)C(C)(C)NC(=O)[C@H](CCC(=O)O)NC(=O)[C@H](CC(C)C)NC(=O)[C@H](Cc1ccc(O)cc1)NC(=O)[C@H](CO)NC(=O)[C@H](CO)NC(=O)[C@@H](NC(=O)[C@H](CC(=O)O)NC(=O)[C@H](CO)NC(=O)[C@@H](NC(=O)[C@H](Cc1ccccc1)NC(=O)[C@@H](NC(=O)CNC(=O)[C@H](CCC(=O)O)NC(=O)C(C)(C)NC(=O)[C@@H](N)Cc1c[nH]cn1)[C@@H](C)O)[C@@H](C)O)C(C)C)[C@@H](C)CC)C(C)C)C(N)=O [Comparative Example 2, N{Epsilon-37}-[2-[2-[2-[[(2S)-2,6-bis[[2-[2-[2-(tetradecanoylamino)ethoxy]ethoxy]acetyl]amino]hexanoyl]amino]ethoxy]ethoxy]acetyl]-[Aib8,Aib22,Aib35,Lys37]-GLP-1-(7-37)-peptide Amide, reference compound] | – |
| – | CC[C@H](C)[C@H](NC(=O)[C@H](Cc1ccccc1)NC(=O)[C@H](CCC(=O)O)NC(=O)[C@H](CCCNC(=N)N)NC(=O)[C@H](C)NC(=O)[C@H](C)NC(=O)[C@H](CCC(N)=O)NC(=O)[C@H](CCC(=O)O)NC(=O)[C@H](CCC(=O)O)NC(=O)[C@H](CC(C)C)NC(=O)[C@H](Cc1ccc(O)cc1)NC(=O)[C@H](CO)NC(=O)[C@H](CO)NC(=O)[C@@H](NC(=O)[C@H](CC(=O)O)NC(=O)[C@H](CO)NC(=O)[C@@H](NC(=O)[C@H](Cc1ccccc1)NC(=O)[C@@H](NC(=O)CNC(=O)[C@H](CCC(=O)O)NC(=O)C(C)(C)NC(=O)[C@@H](N)Cc1c[nH]cn1)[C@@H](C)O)[C@@H](C)O)C(C)C)C(=O)N[C@@H](C)C(=O)N[C@@H](Cc1c[nH]c2ccccc12)C(=O)N[C@@H](CC(C)C)C(=O)N[C@H](C(=O)N[C@@H](CCCNC(=N)N)C(=O)NCC(=O)N[C@@H](CCCNC(=N)N)C(=O)N[C@@H](CCCCNC(=O)COCCOCCNC(=O)COCCOCCNC(=O)COCCOCCNC(=O)COCCOCCNC(=O)COCCOCCNC(=O)COCCOCCNC(=O)COCCOCCNC(=O)COCCOCCNC(=O)[C@H](CCCCNC(=O)CC[C@H](NC(=O)[C@H]1CC[C@H](CNC(=O)CCCCCCCCCCCCCCCCCCC(=O)O)CC1)C(=O)O)NC(=O)CC[C@H](NC(=O)[C@H]1CC[C@H](CNC(=O)CCCCCCCCCCCCCCCCCCC(=O)O)CC1)C(=O)O)C(=O)O)C(C)C [Example 13] | 119 h |
| – | CC[C@H](C)[C@H](NC(=O)[C@H](Cc1ccccc1)NC(=O)[C@H](CCC(=O)O)NC(=O)[C@H](CCCNC(=N)N)NC(=O)[C@H](C)NC(=O)[C@H](C)NC(=O)[C@H](CCC(N)=O)NC(=O)[C@H](CCC(=O)O)NC(=O)[C@H](CCC(=O)O)NC(=O)[C@H](CC(C)C)NC(=O)[C@H](Cc1ccc(O)cc1)NC(=O)[C@H](CO)NC(=O)[C@H](CO)NC(=O)[C@@H](NC(=O)[C@H](CC(=O)O)NC(=O)[C@H](CO)NC(=O)[C@@H](NC(=O)[C@H](Cc1ccccc1)NC(=O)[C@@H](NC(=O)CNC(=O)[C@H](CCC(=O)O)NC(=O)C(C)(C)NC(=O)CCc1cnc[nH]1)[C@@H](C)O)[C@@H](C)O)C(C)C)C(=O)N[C@@H](C)C(=O)N[C@@H](Cc1c[nH]c2ccccc12)C(=O)N[C@@H](CC(C)C)C(=O)N[C@H](C(=O)N[C@@H](CCCNC(=N)N)C(=O)NCC(=O)N[C@@H](CCCNC(=N)N)C(=O)NCC(=O)NCC(=O)N[C@@H](CCCCNC(=O)COCCOCCNC(=O)COCCOCCNC(=O)[C@H](CCCCNC(=O)COCCOCCNC(=O)COCCOCCNC(=O)CC[C@H](NC(=O)[C@H]1CC[C@H](CNC(=O)CCCCCCCCCCCCCCCCCCC(=O)O)CC1)C(=O)O)NC(=O)COCCOCCNC(=O)COCCOCCNC(=O)CC[C@H](NC(=O)[C@H]1CC[C@H](CNC(=O)CCCCCCCCCCCCCCCCCCC(=O)O)CC1)C(=O)O)C(=O)O)C(C)C [Example 7, [Imp7,Aib8,Glu22,Arg26,Arg34]-GLP-1-(7-37)-peptidyl-Gly-N{Epsilon}[2-[2-[2-[[2-[2-[2-[[(2S)-2,6-bis[[2-[2-[2-[[2-[2-[2-[[(4S)-4-carboxy-4-[[4-[(19-carboxynonadecanoylamino)methyl]cyclohexanecarbonyl]amino]butanoyl]amino]ethoxy]ethoxy]acetyl]amino]ethoxy]ethoxy]acetyl]amino]hexanoyl]amino]ethoxy]ethoxy]acetyl]amino]ethoxy]ethoxy]acetyl]Lys] (Desaminohistidyl-[Aib]EGTFTSDVSSYLEEQAAREFIAWLVRGRGGK([AEEA-AEEA-X1])-OH; C-terminus assumed) | 134 h |
